Here are results for one molecule from PMC10269487, “Plasmodium Parasite Malate-Quinone Oxidoreductase Functionally Complements a Yeast Deletion Mutant of Mitochondrial Malate Dehydrogenase” (Microbiology Spectrum, 2023).

Assay [1] addresses T1, yeast succinate dehydrogenase (Saccharomyces cerevisiae, UniProt P21801+P33421+P37298+Q00711).
T1 construct: gene SDH1
In words: inhibition of yeast succinate dehydrogenase activity (Fig. S2). The format is cell-based.

The target in assay [2] is T2, malate-quinone oxidoreductase (PfMQO) (Plasmodium falciparum, UniProt C6KT09).
T2 construct: gene PF3D7_0616800; native full-length PfMQO from codon-optimized cDNA, expressed in ΔMdh1 yeast mitochondria
T2 sequence (C6KT09 1-521): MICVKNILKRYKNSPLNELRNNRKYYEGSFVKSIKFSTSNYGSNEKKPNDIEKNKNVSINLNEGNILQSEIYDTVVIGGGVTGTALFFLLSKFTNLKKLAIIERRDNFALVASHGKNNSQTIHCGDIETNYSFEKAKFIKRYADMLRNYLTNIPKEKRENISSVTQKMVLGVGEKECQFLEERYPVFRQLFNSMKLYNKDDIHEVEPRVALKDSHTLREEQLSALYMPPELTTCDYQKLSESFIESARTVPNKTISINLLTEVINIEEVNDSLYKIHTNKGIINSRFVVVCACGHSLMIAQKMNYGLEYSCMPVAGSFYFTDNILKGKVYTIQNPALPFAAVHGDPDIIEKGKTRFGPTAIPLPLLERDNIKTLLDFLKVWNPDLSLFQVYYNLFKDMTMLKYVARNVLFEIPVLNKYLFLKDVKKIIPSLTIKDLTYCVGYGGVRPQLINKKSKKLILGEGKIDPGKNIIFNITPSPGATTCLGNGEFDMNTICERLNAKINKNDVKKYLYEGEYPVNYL
In words: malate:dUQ/DCIP reductase activity in mitochondrial fraction of PfMQO-expressing yeast, with ΔMdh1 as negative control. The format is biochemical.

Usually IC50 stands for the point on the concentration scale where inhibition reaches its midpoint.

T1 sequence (Q00711 29-640): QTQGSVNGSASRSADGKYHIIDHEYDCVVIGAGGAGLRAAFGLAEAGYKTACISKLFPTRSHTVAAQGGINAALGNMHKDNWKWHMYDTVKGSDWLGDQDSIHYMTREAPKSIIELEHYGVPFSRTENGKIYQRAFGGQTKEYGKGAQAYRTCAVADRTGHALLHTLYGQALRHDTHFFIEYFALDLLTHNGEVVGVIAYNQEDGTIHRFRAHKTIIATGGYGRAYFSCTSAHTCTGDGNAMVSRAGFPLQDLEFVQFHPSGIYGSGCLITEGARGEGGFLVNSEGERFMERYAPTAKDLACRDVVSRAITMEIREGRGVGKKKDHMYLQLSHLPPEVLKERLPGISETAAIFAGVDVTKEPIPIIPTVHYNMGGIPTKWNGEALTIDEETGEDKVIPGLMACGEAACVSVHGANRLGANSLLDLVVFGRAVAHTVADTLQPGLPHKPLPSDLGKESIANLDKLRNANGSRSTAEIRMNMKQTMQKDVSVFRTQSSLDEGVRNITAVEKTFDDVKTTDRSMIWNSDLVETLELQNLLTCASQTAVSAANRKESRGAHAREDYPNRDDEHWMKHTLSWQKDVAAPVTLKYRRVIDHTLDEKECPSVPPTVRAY
T1 sequence (P21801 21-266): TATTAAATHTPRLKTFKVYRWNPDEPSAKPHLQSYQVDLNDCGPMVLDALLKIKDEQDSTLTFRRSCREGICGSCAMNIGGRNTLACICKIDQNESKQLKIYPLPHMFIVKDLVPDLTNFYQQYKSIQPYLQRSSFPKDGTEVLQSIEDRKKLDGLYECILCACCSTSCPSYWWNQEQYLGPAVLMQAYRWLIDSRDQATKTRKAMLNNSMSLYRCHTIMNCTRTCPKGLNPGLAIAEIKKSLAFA
T1 sequence (P33421 51-198): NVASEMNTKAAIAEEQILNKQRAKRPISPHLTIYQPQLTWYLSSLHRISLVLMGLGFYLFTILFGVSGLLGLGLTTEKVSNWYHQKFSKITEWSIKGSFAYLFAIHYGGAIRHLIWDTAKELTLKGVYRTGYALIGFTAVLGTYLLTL
T1 sequence (P37298 32-181): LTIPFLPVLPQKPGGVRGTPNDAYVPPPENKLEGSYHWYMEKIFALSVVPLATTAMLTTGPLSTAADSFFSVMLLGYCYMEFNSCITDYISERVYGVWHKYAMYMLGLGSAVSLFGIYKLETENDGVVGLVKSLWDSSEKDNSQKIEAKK

Molecule `CC(C)=CCC/C(C)=C/CC/C(C)=C/Cc1c(O)c2ccccc2oc1=O` [ferulenol] displayed an IC50 in assay [1] of around 100 nM. Further, the “malate:dUQ/DCIP reductase activity in mitochondrial fraction of PfMQO-expressing” value in assay [2] is reported as “almost completely suppressed by 1”.
